B1: IFN-γ: recombinant human IFN-γ (peprotech) (protein, UniProt P01579 24-161, looked up)
Interferon gamma: QDPYVKEAENLKKYFNAGHSDVADNGTLFLGILKNWKEESDRKIMQSQIVSFYFKLFKNFKDDQSIQKSVETIKEDMNVKFFNSNKKKRDDFEKLTNYSVTDLNVQRKAIHELIQVMAELSPAAKTGKRKRSQMLFRG
B2: CD40L: Recombinant CD40 ligand (Peprotech) (protein, UniProt P29965 113-261, looked up)
CD40 ligand, soluble form: MQKGDQNPQIAAHVISEASSKTTSVLQWAEKGYYTMSNNLVTLENGKQLTVKRQGLYYIYAQVTFCSNREASSQAPFIASLCLKSPGRFERILLRAANTHSSAKPCGQQSIHLGGVFELQPGASVFVNVTDPSQVSHGTGFTSFGLLKL

How the values were obtained:
human macrophages [1] = assay: M1/M2 marker expression on CAR macrophages by flow cytometry; format: cell-based; settings: mRNA transfected CAR macrophages
From the text: IFN containing media was washed off after the indicated time. IFN-primed CAR macrophages were used for further analysis.
(§1) M1/M2 markers on primary human macrophages were detected with the following panel: Anti-CD11B PE (Biolegend, 301306), Anti-CD80 BV605 (Biolegend, 305225), Anti-CD86 BV711 (Biolegend, 305440), Anti CD206 BV421 (Biolegend, 321126), Anti CD163 APC-CY7 (Biolegend, 333622), anti HLA-DR BV785 (Biolegend, 307642), Anti HLA ABC PE/CY7 (Biolegend, 311430) and Live/Dead Fixable Aqua Dead Cell Stain Kit. Cytokine production (IL12, IFN-γ, TNF-α, IL6, IL8, IL1b, MCP-1, IL10, IL4, IL13, and other human cytokines) was evaluated in supernatant collected from macrophages (control or CAR) treated as described below using the MSD instrument per manufacturers recommendations (Meso Scale Discovery). In some cases, macrophages were co-cultured with antigen-bearing target cells at indicated effector to target ratios.
(§2) Human macrophages were electroporated with HER2 CAR mRNA comprising m6AGCap1 and PsU modifications. Cells were cultured with cytokines that induce an M1 phenotype such as IFN-alpha, IFN-beta, IFN-gamma, IFN-gamma plus lipopolysaccharide (LPS), TNF-alpha, IL-6 or a STING ligand (STING-L) for up to 48 hours and then cytokines were washed off and fresh media was added. CAR expression and M1 marker expression were measured on days 2 and 7 after transfection. Fluorescent labeled HER2+ breast cancer cells (CRL2351) were co-cultured with HER2 CAR macrophages two days after the macrophages were transfected. Cancer cell growth was monitored via its fluorescence on an Incucyte live imaging microscope every four hours. The Effector (CAR macrophage) to Target (cancer cell) ratio was 5:1.
Human macrophages were electroporated with 300 nM CAR mRNA comprising m6AGCap1 and PsU modifications. Cells were cultured with 20 ng/mL IFNs for 24 hours and then the cells were washed to remove cytokines. CAR expression was detected by Flow Cytometry (Attune) on day 2 after transfection. Cells were then co-cultured with a Nuc-Light labeled, HER2+ breast cancer cell line (CRL2351) at the Effector to Target ratio of 3:1. Cancer cell growth was monitored via its fluorescence on an Incucyte live imaging microscope. CAR expression and M1 markers in macrophages were detected by Flow Cytometry (Attune) on day 7 after transfection.

human macrophages [2] = assay: Cytokine secretion of CAR macrophages co-cultured with HER2+ breast cancer cells (MSD); format: cell-based; settings: supernatant 48 hours after co-culture, E:T 3:1
From the text: as §1
Human macrophages were electroporated with 150 nM HER2 CAR mRNA comprising m6AGCap1 and PsU modifications. HER2+ breast cancer cells (CRL2351) were co-cultured with CAR macrophages after the macrophages were transfected with the CAR mRNA at an Effector (CAR macrophage) to Target (cancer cell) ratio of 3:1. Supernatant was collected 48 hours after the cancer cells and macrophages were co-cultured and cytokine levels were measured using a Meso Scale Discovery (MSD) instrument.

human macrophages [3] = assay: mCherry expression in transfected macrophages with IFN-γ, sunitinib or ABCE1 (Incucyte); format: cell-based; settings: cultured one day with different doses of IFN-γ
Description: The transfection efficiency, persistence of expression, and intensity of expression of the fluorescent reporter gene mCherry in human monocytes or macrophages was evaluated using real time live microscopy on the Incucyte (Sartorius) for the indicated period of time.
Macrophages were treated with 0-10 µM sunitinib (an RNAse-L inhibitor) for 2 hours prior to mRNA electroporation or transfection. The level of expression and persistence of expression of the encoded transgene was assessed using methods described above.
Human macrophages were transfected with mCherry mRNA comprising m6AGCap1 and PsU or N1mPsU modifications and were then cultured for one day with different doses of IFN-γ. mCherry expression was monitored on an Incucyte live imaging microscope.
In order to determine whether an RNaseL inhibitor could rescue IFN-γ-induced instability of transfected mRNA, human macrophages were treated with 1 µM sunitinib (an RNaseL inhibitor) two hours prior to the transfection of mCherry mRNA comprising m6AGCap1 and PsU modifications. Transfected cells were then cultured for one day with different dosages of IFN-γ. mCherry expression was monitored on an Incucyte live imaging microscope.
The effect of another RNaseL inhibitor (RLI or ABCE1) was also tested to further validate the concept. […]

human macrophages [4] = assay: CAR expression on macrophages by flow cytometry; format: cell-based; settings: two days after transfection, 20 ng/mL IFNs for 24 hours
human macrophages [5] = assay: Viability of macrophages electroporated or transfected with CAR mRNA (FACS); format: cell-based; settings: two days after transfection, 20 ng/mL IFNs for 24 hours
Description: as §2, with “The Effector (CAR macrophage) to Target (cancer cell) ratio was 5:1.” left out
Five different mRNA modifications were also tested to determine if interferon treatment differentially affected macrophages transfected with mRNA comprising different modifications. […] CAR expression and M1 markers were detected by Flow Cytometry (Attune) on day four after electroporation. […] Cancer cell growth was monitored via its fluorescence on an Incucyte live imaging microscope every four hours.
Human macrophages were electroporated with 300 nM CAR mRNA comprising m6AGCap1 and PsU modifications. […] CAR expression was detected by Flow Cytometry (Attune) on day 2 after transfection. […] Cancer cell growth was monitored via its fluorescence on an Incucyte live imaging microscope. […]

[6] = system: CRL-2351 cells expressing nuclear GFP; assay: Tumor killing by macrophages and CAR macrophages primed on plates coated with CD40L, 4-1BB or 4-1BBL; format: cell-based, human; settings: plate-coated protein
Description: (§3) To generate Her2-Zeta CAR expressing macrophages, primary human macrophages were suspended in EP buffer (MaxCyte) containing 300 nM mRNA (TriLink) at a concentration of 90×10^6 cells/mL. 100 µL of cell mixture was added to an electroporation cassette (OC 100x2; MaxCyte) and electroporated using the Experimental T cell 1 setting. Cells were removed from the cassette, plated in 3 mL of TexMACS media (Miltenyi Biotech) containing 20% FBS (Gibco) on UpCell plates (Thermo Scientific), and incubated overnight at 37° C. and 5% CO2.
(§4) Recombinant CD40 ligand (Peprotech), 4-1BB ligand (Enzo Life Sciences), and 4-1BB receptor (Peprotech) were re-suspended in molecular grade water to a stock concentration of 100 µg/mL. Stock solution was then used to create working solutions in PBS ranging from 2 -0.002 µg/mL. 100 µL of working solution was added to wells in a 96-well plate and left at room temperature for 4 hours.
Plates were removed from the incubator and left at room temperature for 30 minutes. Cells were detached from plate, counted using the NC-200 automated cell counter (Chemomtech), and re-suspended in TexMACS media with 10% FBS. […] Cell lysis was detected using the Incucyte (Essen Bioscience). Tumor cell death was calculated by integrated GFP intensity per well relative to time 0.

[7] = system: primary human macrophages; assay: M1 and M2 marker expression after priming with CD40L, 4-1BB or 4-1BBL; format: cell-based; settings: macrophages transfected with CAR mRNA, 3 days
Description: as §3, §4
For detection of cell surface proteins, macrophages were plated onto wells coated with agonist molecules in a final volume of 200 µL TexMACS media + 10% FBS + 10 ng/mL GM-CSF and incubated for 3 days at 37° C. and 5% CO2. Cells were incubated in 300 µL Accutase (Sigma) for 30 min and transferred to 96-well round bottom plate for staining. Cells were incubated in FACS buffer containing 20 µg/mL Her2-His for 20 min at RT, followed by incubation in Human TruStain FcX for 10 min at RT. […]

Row | Molecule | M1 phenotype based on CD86 expression (human macrophages [1]) | M2 markers based on CD163 expression (human macrophages [1]) | cytokine secretion (human macrophages [2]) | further results
1 | IFN-α | induction of an M1 phenotype | reduction of M2 markers | increased secretion of the cytokines IL-6, IL-8 and TNFα | –
2 | IFN-γ: recombinant human IFN-γ (peprotech) | induction of an M1 phenotype | reduction of M2 markers | increased secretion of the cytokines IL-6, IL-8 and TNFα | mCherry mRNA expression (human macrophages [3]): reduced mCherry mRNA expression; CAR expression (human macrophages [4]): very high except in macrophages that had been treated with IFN-γ
3 | B1 | – | – | – | CAR macrophage viability (human macrophages [5]): very high except in macrophages that had been treated with IFN-γ
4 | B2 | – | – | – | tumor killing ability of macrophages and CAR macrophages [6]: significantly improved the tumor killing ability; M1 phenotype (M1 and M2 markers) [7]: induced an M1 phenotype
